Assay results from patent US10392379B2, “Hepatitis B core protein modulators” (Assembly Biosciences, Inc., priority 2015, dated 2019).

Columns and labels:
HBV = assay: Viral load production in AD38 cells by quantitative PCR of the core sequence; format: cell-based; conditions: Hepatitis B virus, 144 h, 10 μM compound, 6 days, supernatant qPCR, relative to DMSO control, read-out: AD38 Viral Load (%) (VL with cmpd/VL in DMSO control) at 10 μM
Method: (§1) AD38 cells were then re-suspended with 10 mL of Treatment Medium and counted. Wells of a collagen coated 96-well NUNC microtiter plate were seeded at 50,000/well in 180 μL of Treatment Medium, and 20 μL of in treatment media with either 10% DMSO (Control) or a 10× solution of compound in 10% DMSO was added. Plates were incubated for 6 days at 37° C.
Viral load production was assayed by quantitative PCR of the core sequence. […] The PCR mixture was incubated at 45° C. for 5 minutes, then 95° C. for 10 min, followed by 40 cycles of 10 seconds at 95° C. and 20 seconds at 60° C. Viral load was quantitated against known standards by using ViiA™ 7 Software. Viral load in the supernatant from wells with treated cells were compared against viral load in supernatant from DMSO control wells (≥3 per plate).

AD38 cells = assay: Viability of AD38 cells (Promega CellTiter-Glo); format: cell-based; conditions: 10 μM compound, 6 days, DMSO controls = 100%
Method: as §1
At the end of compound treatment period cell viability was assessed using a Promega CellTiter-Glo protocol. All supernatant was removed the previously treated 96-well microtiter plate, and 50 μL Tetracycline-free treatment medium (DMEM/F12 (1:1), 1× Pen/step (cat#: 30-002-CL, Mediatech, Inc), with 2% FBS, Tet-system approved (cat#: 631106, Clontech), and 1% DMSO was added back to each well. Another 50 μL of CellTiter-Glo reagent solution (Promega, G7573) was then added at room temperature and the contents mixed for 2 minutes on an orbital shaker to induce cell lysis. This was followed by incubation at room temperature for 10 minutes to stabilize the luminescent signal. The luminescence was recorded for 0.2 seconds per well on a Tecan multimode platereader (Infinite M1000 pro). The luminescent signal from each well was normalized against that of untreated (DMSO) control wells. All results in Table 3 were reported with percent viability (with controls being 100%).

| Compound | activity at 10 µM (HBV) [%] | AD38 Viability Normalized Result (cmpd/DMSO %) at 10 μM (AD38 cells) [%] |
| --- | --- | --- |
| Cc1cc2c(cc1C(=O)NCc1cncnc1)NC(=O)c1ccccc1S2 [Compound 495] | 23.1 | 96 |
| Cc1cc2c(cc1C(=O)NCc1cccnc1)NC(=O)c1ccccc1S2 [Compound 497] | 38.7 | 97 |
| O=C(NCc1cncnc1)c1ccc2c(c1)NC(=O)c1ccccc1N2 [Compound 504] | 62.9 | 101 |
| O=C(NCCc1ccccn1)c1ccc2c(c1)NC(=O)c1ccccc1N2 [Compound 505] | 48.2 | 103 |
| O=C(NCCc1cccnc1)c1ccc2c(c1)NC(=O)c1ccccc1N2 [Compound 506] | 31.6 | 100 |
| O=C(NCc1cccnc1)c1ccc2c(c1)NC(=O)c1ccccc1N2 [Compound 507] | 51.9 | 103 |
| O=C(NCc1cncnc1)c1ccc2c(c1)NC(=O)c1cc(Cl)ccc1S2 [Compound 539] | 0.2 | 0 |
| O=C(NCc1cccnc1)c1ccc2c(c1)NC(=O)c1cc(Cl)ccc1S2 [Compound 540] | 0.6 | 52 |
| O=C(NCc1cncnc1)c1ccc2c(c1)NC(=O)c1ccc(Cl)cc1S2 [Compound 542] | 1.6 | 106 |
| O=C(NCc1cccnc1)c1ccc2c(c1)NC(=O)c1ccc(Cl)cc1S2 [Compound 543] | 1.2 | 24 |
| CC1c2ccc(C(=O)NCc3cncnc3)cc2NC(=O)c2ccccc21 (stereo not drawn) [Compound 545] | 1.4 | 95 |
| CC1c2ccc(C(=O)NCc3cccnc3)cc2NC(=O)c2ccccc21 (stereo not drawn) [Compound 547] | 1.5 | 99 |
| O=C(NCc1nnc(-c2ccc(O)cc2)s1)c1ccc2c(c1)NC(=O)c1ccccc1O2 [Compound 739] | 62.2 | 108 |
| O=C(NCc1ccc(-c2ccc(O)cc2)nc1)c1ccc2c(c1)NC(=O)c1ccccc1S2(=O)=O [Compound 778] | 3.2 | 104 |
| O=C(NCc1ccc(-c2ccc3[nH]ccc3c2)nc1)c1ccc2c(c1)NC(=O)c1ccccc1S2(=O)=O [Compound 779] | 0.5 | 87 |
| O=C(NCc1ccc(-c2ccc3[nH]ncc3c2)nc1)c1ccc2c(c1)NC(=O)c1ccccc1S2(=O)=O [Compound 780] | 1.8 | 106 |
| O=C(NCc1ccc(-c2ccc3[nH]cnc3c2)nc1)c1ccc2c(c1)NC(=O)c1ccccc1S2(=O)=O [Compound 781] | 7.3 | 102 |
| Nc1ncc(-c2ccc(CNC(=O)c3ccc4c(c3)NC(=O)c3ccccc3S4(=O)=O)cn2)cn1 [Compound 782] | 25.4 | 108 |

| Compound | activity at 10 µM (HBV) [%] | AD38 Viability Normalized Result (cmpd/DMSO %) at 10 μM (AD38 cells) [%] |
| --- | --- | --- |
| O=C(NCc1ccc(-c2ccc(O)cc2Cl)nc1)c1ccc2c(c1)NC(=O)c1ccccc1S2(=O)=O [Compound 783] | 6.3 | 105 |
| O=C(NCc1ccc(-c2ccc(O)c(Cl)c2)nc1)c1ccc2c(c1)NC(=O)c1ccccc1S2(=O)=O [Compound 784] | 137 | 103 |
| O=C(NCc1ccc(-c2ccc(O)cc2F)nc1)c1ccc2c(c1)NC(=O)c1ccccc1S2(=O)=O [Compound 785] | 2.1 | 94 |
| O=C(NCc1ccc(-c2ccc(O)c(F)c2)nc1)c1ccc2c(c1)NC(=O)c1ccccc1S2(=O)=O [Compound 786] | 5 | 105 |
| O=C(NCc1ccc(-c2cc(F)c(O)c(F)c2)nc1)c1ccc2c(c1)NC(=O)c1ccccc1S2(=O)=O [Compound 787] | 15.5 | 100 |
| O=C(NCc1cnc(-c2ccc(O)cc2)nc1)c1ccc2c(c1)NC(=O)c1ccccc1S2(=O)=O [Compound 788] | 1.9 | 111 |
| O=C(NCc1cnc(-c2ccc3[nH]ccc3c2)nc1)c1ccc2c(c1)NC(=O)c1ccccc1S2(=O)=O [Compound 789] | 0.4 | 108 |
| O=C(NCc1cnc(-c2ccc3[nH]ncc3c2)nc1)c1ccc2c(c1)NC(=O)c1ccccc1S2(=O)=O [Compound 790] | 1.7 | 103 |
| O=C(NCc1cnc(-c2ccc3[nH]cnc3c2)nc1)c1ccc2c(c1)NC(=O)c1ccccc1S2(=O)=O [Compound 791] | 2.2 | 100 |
| Nc1ncc(-c2ncc(CNC(=O)c3ccc4c(c3)NC(=O)c3ccccc3S4(=O)=O)cn2)cn1 [Compound 792] | 23.1 | 105 |
| O=C(NCc1cnc(-c2ccc(O)cc2Cl)nc1)c1ccc2c(c1)NC(=O)c1ccccc1S2(=O)=O [Compound 793] | 3.5 | 103 |
| O=C(NCc1cnc(-c2ccc(O)c(Cl)c2)nc1)c1ccc2c(c1)NC(=O)c1ccccc1S2(=O)=O [Compound 794] | 1.3 | 104 |
| O=C(NCc1cnc(-c2ccc(O)cc2F)nc1)c1ccc2c(c1)NC(=O)c1ccccc1S2(=O)=O [Compound 795] | 6.4 | 106 |
| O=C(NCc1cnc(-c2ccc(O)c(F)c2)nc1)c1ccc2c(c1)NC(=O)c1ccccc1S2(=O)=O [Compound 796] | 1.4 | 111 |
| O=C(NCc1nnc(-c2ccc(O)cc2)s1)c1ccc2c(c1)NC(=O)c1ccccc1S2(=O)=O [Compound 807] | 0.9 | 96 |
| O=C(NCc1ccc(Cc2ccc(O)cc2)nc1)c1ccc2c(c1)NC(=O)c1ccccc1S2(=O)=O [Compound 825, N-((6-(4-hydroxybenzyl)pyridin-3-yl)methyl)-11-oxo-10,11-dihydrodibenzo[b,f][1,4]thiazepine-8-carboxamide 5,5-dioxide] | 6.6 | 90 |
| COc1ccc(Cc2ccc(CNC(=O)c3ccc4c(c3)NC(=O)c3ccccc3S4(=O)=O)cn2)cc1 [Compound 825-A, N-((6-(4-methoxybenzyl)pyridin-3-yl)methyl)-11-oxo-10, 11-dihydrodibenzo[b,f][1,4]thiazepine-8-carboxamide 5,5-dioxide] | 6.2 | 58 |
| O=C(NCc1ccc(Cc2ccc(O)cc2)nc1)c1ccc2c(c1)NC(=O)c1ccccc1O2 [Compound 837, N-((6-(4-hydroxybenzyl)pyridin-3-yl)methyl)-11-oxo-10,11-dihydrodibenzo[b,f][1,4]oxazepine-8-carboxamide] | 0.9 | 108 |
